By IC50 is commonly meant the midpoint of a concentration-inhibition curve.

This note sets out measurements from patent publication US5691376A, “Substituted biphenyl derivatives” (American Home Products Corporation, priority 1996, dated 1997).

Where a name gives a salt, the structure may show the parent alone. Some results are limits rather than exact numbers.

Experiment [1] deals with U937 PDE IV. Briefly: Test procedure No. 3: inhibition of PDE-IV isolated from U937 cells. The format is biochemical. To be noted: 1 μM [3H]-cAMP; 37° C.; pH 7.8; linear regression of percent inhibition.
The subject of experiment [2] is PDE IV isolated from dog tracheal muscle. Briefly: Test Procedure No. 1: inhibition of PDE IV from canine tracheal muscle (cAMP metabolism). The note with it: 1 μM 3H-cAMP, 10 μM CI-930, 30° C. The format is biochemical, dog (canine). As to the method: A solution containing PDE IV is prepared from canine tracheal muscle as follows:
The dog is euthanized with an overdose of beuthanasia while under anesthesia induced by a 33 mg/kg IV bolus of Nembutal. The trachealis muscle is removed, cleaned of connective tissue, and minced thoroughly. Three to four grams of tissue is then homogenized in Tris-HCl buffer (pH 7.8) using a Polytron. The homogenate is then centrifuged at 25,000×g (4° C.) for 30 minutes. The supernatant is decanted and filtered through four layers of gauze, and applied to a 40 cm×2 cm DEAE-Sepharose column that is equilibrated with Tris-HCl buffer (pH 7.8). The column is then washed with an additional 240 mL of buffer to remove unbound proteins. PDE is eluted using 450 mL of Tris-HCl buffer containing a linear gradient of 0.0-1.0M Na-acetate (80 mL/hr), and 7.5 mL fractions are collected. Each fraction is assayed for cAMP- and cGMP-metabolizing PDE activity. Fractions eluting at approximately 0.6M Na-acetate, and containing cAMP but not cGMP metabolic activity are pooled and used as a PDE stock solution for assaying PDE IV inhibitory activity.
CI-930 is included as an inhibitor of the cyclic GMP-sensitive, cyclic AMP-selectivePDE (PDE III) that is also present in the PDE IV stock solution when prepared as described above.
The two abovementioned PDE IV inhibition tests were used to determine the PDE IV inhibitory abilities of some of the compounds of the present invention.

For experiment [3], the system named is PDE IV. The experiment can be described thus: Test Procedure No. 2: functional PDE IV inhibition, relaxation of carbachol-precontracted tracheal rings with CI-930. The format is cell-based, guinea pig (Male Hartley). To be noted: guinea pig tracheal rings precontracted with 1 μM carbachol; CI-930 10 μM; read-out: Test No. 2 IC50 (functional PDE inhibitory test). As to the method: The following standard test is also employed to assess the abilities of compounds to inhibit PDE IV functionally.
Male Hartley guinea pigs (500-550 g, Charles River) were euthanized by a blow to the head, and the tracheas were removed and placed in aerated physiological salt solution (PSS) containing NaCl ([…]), KH2 PO4 ([…]), KCl (4.74 mM), CaCl2 (2.5 mM), MgSO4.7H2 O ([…]), NaHCO3 (25 mM), dextrose (11.1 mM), cocaine and hydrocortisone (3 μM and 10 μM, respectively, to block intraneural and extraneural uptake mechanisms), propranolol and phentolamine (1 μM and 10 μM, respectively, to block adrenoceptors),indomethacin (2.8 μM; to block spontaneous tension generation), and calcium disodium EDTA (26 μM, as an antioxidant). Tracheal rings were prepared and mounted in 10 ml organ baths for the measurement of isometric tension generation as previously described (Heaslip et al., 1986).
Tracheal relaxation resulting from the inhibition of PDE-IV or PDE-III was assessed by a method similar to that employed by Harris et al. (1989). Tracheal rings were precontracted with 1 μM carbachol until a stable level of tension was obtained (30 min). To explore the inhibition of PDE-IV, tracheal rings were then incubated (45 min) with CI-930 (10 μM), thus inhibiting PDE-III and sensitizing the ring to the relaxant effects of PDE-IV inhibitors. Conversely, the inhibition of tracheal PDE-III was explored using rings pretreated with rolipram (10 μM), and thereby sensitized to PDE-III inhibitors (Harris et al., 1989). The functional inhibition of PDE-IV or PDE-III was determined by adding a test compound to the tissue bath in cumulatively increasing concentrations and monitoring the degree of relaxation induced in the continued presence of CI-930 or rolipram (respectively). After adding the final concentration of test compound to the organ bath, tracheal rings were washed repeatedly with PSS, and allowed to relax to resting tension. Percent relaxations produced by each concentration of test compound were calculated as a percentage relaxation of tension maintained in the presence of the preincubating PDE inhibitor, relative to the final resting tension determined at the end of each experiment.
The two abovementioned PDE IV inhibition tests were used to determine the PDE IV inhibitory abilities of some of the compounds of the present invention. The table below indicates the compounds tested and the results thereof. For each of Tests 1 and 2, the results are given as IC50 s for the compound tested in M concentrations.

Consider `COc1ccc(-c2ccc(C(=O)NCc3cccnc3)cc2)cc1OC1CCCC1` [Comparative Example 1, 3'-Cyclopentyloxy-4'-methoxy-biphenyl-4(3-methylpryridyl) carboxylic acid amide, reference compound], for which the IC50 in experiment [1] was more than 1000 nM.
Consider `COc1ccc(-c2ccc(C(=O)O)cc2)cc1OC1CCCC1` [Example 1, 3'-Cyclopentyloxy-4'-methoxy-biphenyl-4-carboxylic acid], for which the half-maximal inhibitory concentration (IC50) is 230 nM in experiment [1] and 245 nM in experiment [2] (pH 7.8).
For the compound `COc1ccc(-c2ccc(C(N)=O)cc2)cc1OC1CCCC1` [Example 2, 3'-Cyclopentyloxy-4'-methoxy-biphenyl-4-carboxylic acid amide], the IC50 in experiment [3] was 160 nM; in experiment [2] (pH 7.8) it was 60 nM.
As to `COc1ccc(-c2ccc(C(=O)NN)cc2)cc1OC1CCCC1` [Example 3, 3'-Cyclopentyloxy-4'-methoxy-biphenyl-4-carboxylic acid hydrazide], the results for the IC50 in experiment [3] and in experiment [2] (pH 7.8) were 66 nM and 58 nM, respectively.
The compound `COc1ccc(-c2cccc(C(=O)NN)c2)cc1OC1CCCC1` [Example 4, 3'-Cyclopentyloxy-4'-methoxy-biphenyl-3-carboxylic acid hydrazide] showed an IC50 in experiment [2] (pH 7.8) of 100 nM.
As for `COc1ccc(-c2cccc(C(=O)O)c2)cc1OC1CCCC1` [Example 5, 3'-Cyclopentyloxy-4'-methoxy-biphenyl-3-carboxylic acid], the IC50 in experiment [3] was 61 nM; in experiment [2] (pH 7.8) it was 23 nM.
Turning to `COc1ccc(-c2ccc(Cl)cc2)cc1OC1CCCC1` [Example 6, 4-Chloro-3'-Cyclopentyloxy-4'-methoxy-biphenyl], the IC50 in experiment [3] amounted to 12000 nM; in experiment [2] (pH 7.8) it was 100 nM.
On the same counts, the results for `COc1ccc(-c2cccc(C=O)c2)cc1OC1CCCC1` [Example 8, 3'-Cyclopentyloxy-4'-methoxy-biphenyl-3-carbaldehyde] are 330 nM and 34 nM.
Taken in the same sequence, the figures for `COc1ccc(-c2ccc(C=O)cc2)cc1OC1CCCC1` [Example 9, 3'-Cyclopentyloxy-4'-methoxy-biphenyl-4-carbaldehyde] were 23 nM and 20 nM.
Regarding `COc1ccc(-c2ccccc2C=O)cc1OC1CCCC1` [Example 10, 3'-Cyclopentyloxy-4'-methoxy-biphenyl-2-carbaldehyde], it took 100 nM to reach half-maximal inhibition in experiment [2] (pH 7.8) (IC50).
The same measure, in the same setting: the value for `COc1ccc(-c2cccc(C(C)=O)c2)cc1OC1CCCC1` [Example 11, 1-(3'-Cyclopentyloxy-4'-methoxy-biphenyl-3-yl)-ethanone] was 4.3 nM; that for `COc1ccc(-c2ccc(C(C)=O)cc2)cc1OC1CCCC1` [Example 12, 1-(3'-Cyclopentyloxy-4'-methoxy-biphenyl-4-yl)-ethanone] was 86 nM.
Still for that read-out and setting: the value for `COc1ccc(-c2ccc(C(=O)c3ccccc3)cc2)cc1OC1CCCC1` [Example 13, (3'-Cyclopentyloxy-4'-methoxy-biphenyl-4-yl)-phenylmethanone] was 610 nM.
In the case of `COc1ccc(-c2cccc(C#N)c2)cc1OC1CCCC1` [Example 14, 3'-Cyclopentyloxy-4'-methoxy-biphenyl-3-carbonitrile], in experiment [2] (pH 7.8), the IC50 is 84 nM.
The same measure, in the same setting: then `COc1ccc(-c2ccc(N)cc2)cc1OC1CCCC1` [Example 16, 3'-Cyclopentyloxy-4'-methoxybiphenyl-4-ylamine], with 330 nM.
With `COc1ccc(-c2ccc(C(=O)O)cc2)cc1OC1CCCC1` [Example 17, 3'-Cyclopentyloxy-4'-methoxy-biphenyl-4-carboxylic acid sodium salt], the IC50 in experiment [2] (pH 7.8, sodium salt) stood at 110 nM.
Regarding `COC(=O)c1cccc(-c2ccc(OC)c(OC3CCCC3)c2)c1` [Example 18, 3'-Cyclopentyloxy-4'-methoxy-biphenyl-3-carboxylic acid methyl ester], the figures for the IC50 in experiment [3] and in experiment [2] (pH 7.8) were 230 nM and 31 nM, respectively.
In experiment [2] (pH 7.8), `COC(=O)c1ccc(-c2ccc(OC)c(OC3CCCC3)c2)cc1` [Example 19, 3'-Cyclopentyloxy-4'-methoxy-biphenyl-4-carboxylic acid methyl ester] gave an IC50 of 580 nM.
On the same count and under the same terms, then `COc1ccc(-c2ccc3c(c2)CCCC3=O)cc1OC1CCCC1` [Example 20, 6-(3-Cyclopentyloxy-4-methoxy-phenyl)-3,4-dihydro-2H-naphthalen-1-one], with 59 nM; and `COc1ccc(-c2ccc3c(c2)CCC/C3=N\O)cc1OC1CCCC1` [Example 21, (E)-6-(3-Cyclopentyloxy-4-methoxy-phenyl)-3,4-dihydro-2H-naphthalen-1-one oxime], with 290 nM.
Take `COc1ccc(-c2ccc(C=NO)cc2)cc1OC1CCCC1` [Example 22, 3'-Cyclopentyloxy-4'-methoxy-biphenyl-4-carbaldehyde oxime]: the IC50 turned out to be 140 nM in experiment [3] and 36 nM in experiment [2] (pH 7.8).
Taken in the same sequence, the figures for `COc1ccc(-c2cccc(C=NO)c2)cc1OC1CCCC1` [Example 23, 3'-Cyclopentyloxy-4'-methoxy-biphenyl-3-carbaldehyde oxime] were 1900 nM and 39 nM.
For `COc1ccc(-c2ccc3c(c2)CCC/C3=N\OC(C)=O)cc1OC1CCCC1` [Example 25, E-6-(3-Cyclopentyloxy-4-methoxy-phenyl)-3,4-dihydro-2H-naphthalen-1-one oxime acetate], 730 nM corresponded to half-maximal inhibition in experiment [2] (pH 7.8) (IC50).
Consider `COc1ccc(-c2ccc(NC(N)=O)cc2)cc1OC1CCCC1` [Example 26, (3'-Cyclopentyloxy-4'-methoxy-biphenyl-4-yl)-urea], for which, in experiment [2] (pH 7.8), the concentration for half-maximal inhibition (IC50) amounted to 270 nM.
Turning to `COc1ccc(-c2cccc(NC(N)=O)c2)cc1OC1CCCC1` [Example 27, (3'-Cyclopentyloxy-4'-methoxy-biphenyl-3-yl)-urea], the IC50 in experiment [2] (pH 7.8) came to 550 nM.
As to `COc1ccc(-c2ccc(NC(C)=O)cc2)cc1OC1CCCC1` [Example 28, N-(3'-Cyclopentyloxy-4'-methoxy-biphenyl-4-yl)-acetamide], the IC50 in experiment [2] (pH 7.8) is 1000 nM.
Still for that read-out and setting: the value for `COc1ccc(-c2cccc(NC(C)=O)c2)cc1OC1CCCC1` [Example 29, N-(3'-Cyclopentyloxy-4'-methoxy-biphenyl-3-yl)-acetamide] was 470 nM.
Still for that read-out and setting: the value for `COc1ccc(-c2cccc(C(N)=O)c2)cc1OC1CCCC1` [Example 30, 3'-Cyclopentyloxy-4'-methoxy-biphenyl-3-carboxylic acid amide] was 16 nM; that for `COc1ccc(-c2ccc(C(=O)NO)cc2)cc1OC1CCCC1` [Example 31, 3'-Cyclopentyloxy-4'-methoxy-biphenyl-4-carboxylic acid hydroxylamide] was 100 nM; that for `COc1ccc(-c2ccc(C(=O)O)c(C(=O)O)c2)cc1OC1CCCC1` [Example 32, 3'-Cyclopentyloxy-4'-methoxy-biphenyl-3,4-dicarboxylic acid] was 10000 nM.
For `COC(=O)c1ccc(-c2ccc(OC)c(OC3CCCC3)c2)cc1C(=O)OC` [Example 33, 3'-Cyclopentyloxy-4'-methoxy-biphenyl-3,4-dicarboxylic acid dimethyl ester], the IC50 in experiment [2] (pH 7.8) was found to be 1100 nM.
In the case of `COc1ccc(-c2ccc3c(=O)[nH][nH]c(=O)c3c2)cc1OC1CCCC1` [Example 34, 6-(3'-Cyclopentyloxy-4-methoxyphenyl)-2,3-dihydrophthalizine-1,4-dione], the IC50 in experiment [2] (pH 7.8) came out at 49 nM.
